Reference: the SangsterLogP compilation

logP	SMILES
1.58	Cc1ccnc(C)c1
1.82	Cc1cccc(CN)c1
1.62	Cc1ccccc1CN
1.45	CC(N)c1ccccc1 (centres undefined)
1.1	NCc1ccccc1
2.77	C=C[C@H]1CN2CC[C@H]1C[C@@H]2[C@@H](O)c1ccnc2ccc(OC)cc12
2.17	CC(=O)O[C@]1(C(=O)CO)CC[C@H]2[C@@H]3CCC4=CC(=O)CC[C@]4(C)[C@H]3[C@@H](O)C[C@@]21C
0.74	NC(=O)NN=Cc1ccc([N+](=O)[O-])o1
3.46	CCCCNc1ccc(C(=O)OCCN(C)C)cc1
0.4	Nc1ccccn1
2.09	Cc1cc(C)cc(N)c1
1.74	Cc1cncc(C)c1
3.02	CN1CCOC(c2ccccc2)c2ccccc2C1 (centres undefined)

SMILES	logP
NS(=O)(=O)c1cc(C2(O)NC(=O)c3ccccc32)ccc1Cl (centres undefined)	1.17
